Measurements taken from publication PMC9501014, “Amaryllidaceae-Type Alkaloids from Pancratium maritimum: Apoptosis-Inducing Effect and Cell Cycle Arrest on Triple-Negative Breast Cancer Cells” (Molecules, 2022).
Read-outs that look alike come from different tables or passages of the source.

Columns and labels:
MDA-MB-231 cells [1] = assay: Sulforhodamine B antiproliferative assay, MDA-MB-231; format: cell-based, human; settings: for IC50: sulforhodamine B assay, 48 h of treatment, read-out: IC50 MDA-MDB-231 (A)
Procedure: (§1) The antiproliferative effect of the isolated compounds (1–11) was investigated by the sulforhodamine B assay against human triple-negative breast cancer cell lines (MDA-MB-468 and MDA-MB-231) and breast ductal carcinoma cells (MCF-7) and the non-tumorigenic fibroblast (HFF-1) and breast cell lines (MCF12A). The IC50 values were determined after 48 h of treatment (Table 1).
(§2) Human breast adenocarcinoma MDA-MB-231, MDA-MB-468, and MCF-7 cell lines and non-tumorigenic foreskin fibroblast (HFF-1) and breast (MCF12A) cell lines were purchased from American Type Culture Collection (ATCC, Rockville, MD, USA). All cancer cell lines, except MCF12A, were routinely cultured in RPMI-1640 medium with glutamine from Corning (VWR, Carnaxide, Portugal) supplemented with 10% fetal bovine serum (FBS) from Biowest (Labclinics, Barcelona, Spain). MCF12A cells were cultured in a 1:1 mixture of Dulbecco’s modified Eagle’s medium and Ham’s F12 medium, 20 ng/mL human epidermal growth factor, 100 ng/mL cholera toxin, 0.01 mg/mL bovine insulin, and 500 ng/mL hydrocortisone and supplemented with 10% FBS. All cells were maintained in a humidified incubator at 37 °C with 5% CO2. All cells were routinely tested for mycoplasma contamination using the MycoAlertTM PLUS detection kit (Lonza, Basel, Switzerland).
(§3) Human cell lines were seeded in 96-well plates at a density of 5.0 × 10^3 (MDA-MB-231, MCF-7, HFF-1, and MCF12A) and 7.5 × 10^3 (MDA-MB-468) cells/well and allowed to adhere for 24 h. Cells were treated with serial dilutions of compounds (ranging from 0.1 to 40 μM) for an additional 48 h. Effect on cell proliferation was measured by sulforhodamine B assay, as described in [33], and the half-maximal inhibitory concentration (IC50) was then determined for each cell line using the GraphPad Prism software version 7.0 (La Jolla, CA, USA).

MDA-MB-468 cells = assay: Sulforhodamine B antiproliferative assay, MDA-MB-468; format: cell-based, human
Procedure: as §1, §2, §3

MCF12A cells = assay: Sulforhodamine B antiproliferative assay, non-tumorigenic breast MCF12A; format: cell-based; settings: Homo sapiens, MCF-12A, 48 h of treatment, read-out: IC50 MCF12A (D)
Procedure: as §1, §2, §3

HFF-1 cells = assay: Sulforhodamine B antiproliferative assay, non-tumorigenic fibroblast HFF-1; format: cell-based; settings: Homo sapiens, 48 h of treatment, read-out: IC50 HFF-1 (E)
Procedure: as §1, §2, §3

MDA-MB-231 cells [2] = assay: Mitochondrial ROS generation (MitoSOX); format: cell-based, human; settings: 16 µM, 24 h
Procedure: Figure 2 Compound 7 induced cell cycle arrest, apoptosis, and ROS production, in MDA-MB-231 cells. […] (B) Effect of 16 µM of compound 7 on cell cycle progression after 48 h of treatment in MDA-MB-231 cells; the percentage of cells in each phase of the cell cycle was analyzed by flow cytometry, using PI; data are mean ± SEM of three independent experiments. […] (C) Effect of 16 µM of compound 7 on apoptosis after 48 h of treatment; the percentage of Annexin-positive cells was analyzed by flow cytometry using PI and Annexin-V staining; data are mean ± SEM of three independent experiments. […] (F) The graph represents the quantification of protein expression levels relative to DMSO; data are mean ± SD of three independent experiments. The ability of compound 7 to induce apoptosis in this cell line was also assessed by cytometry, using the Annexin V-FITC assay after 48 h of treatment. […]
For mitochondrial ROS generation assessment, MDA-MB-231 cells were seeded in 6-well plates at a density of 1.5 × 10^5 cells/well for 24 h, followed by treatment with 16 µM of compound 7 for an additional 24 h. Thereafter, cells were incubated with 3 μM MitoSOX (Thermo Fisher Scientific, Invitrogen, Portugal) for 30 min at 37 °C and analyzed by flow cytometry.

[3] = test system: breast cancer cell lines (MDA-MB-231, MDA-MB-468, MCF-7); assay: Sulforhodamine B assay, all breast cancer cell lines; format: cell-based; settings: Homo sapiens; range over the four alkaloids and MDA-MB-231, MDA-MB-468, MCF-7; read-out: IC50 values against all breast cancer cell lines
Procedure: Aiming to find Amaryllidaceae alkaloids against breast cancer, including the highly aggressive triple-negative breast cancer, the phytochemical study of Pancratium maritimum was carried out. Several Amaryllidaceae-type alkaloids, bearing scaffolds of the haemanthamine-, homolycorine-, lycorine-, galanthamine-, and tazettine-type were isolated (3–11), along with one alkamide (2) and a phenolic compound (1). The antiproliferative effect of compounds (1–11) was evaluated by the sulforhodamine B assay against triple-negative breast cancer cell lines MDA-MB-231 and MDA-MB-468, breast cancer cells MCF-7, and the non-malignant fibroblast (HFF-1) and breast (MCF12A) cell lines. […] The homolycorine-type alkaloid 7 was selected for further investigation in MDA-MB-231 cells. In the annexin-V assay, compound 7 increased cell death by apoptosis, which was substantiated, in western blot analyses, by the increased expression of the pro-apoptotic protein Bax, and the decreased expression of the anti-apoptotic protein Bcl-xL. Consistently, it further stimulated mitochondrial reactive oxygen species (ROS) generation. The antiproliferative effect of compound 7 was also associated with G2/M cell cycle arrest, which was supported by an increase in the p21 protein expression levels.
as §3

For `COc1cc2c(cc1O)C(=O)OC1[C@@H](O)C=C3CCN(C)C3[C@]21O` (stereo partly drawn) [Compound 7, 2α-10bα-dihydroxy-9-O-demethylhomolycorine], the “effect of compound alone on cancer cell growth” value (MDA-MB-231 cells [1]; 1.5 µM) was “no significant effect on cancer cell growth”, the IC50 (MDA-MB-231 cells [1]; Homo sapiens, MDA-MB-231, 48 h) was 8.02 µM and the “SI E/A” value (MDA-MB-231 cells [1]; selectivity index, HFF-1 vs MDA-MB-231) was 1.65. The “SI D/A” value (MDA-MB-231 cells [1]; selectivity index, MCF12A vs MDA-MB-231) was 0.69, the IC50 (MDA-MB-231 cells [1]) was 8 ± 1.68 µM and the IC50 (MDA-MB-468 cells; Homo sapiens, MDA-MB-468, 48 h, sulforhodamine B assay, 48 h of treatment) was 16.3 ± 1.3 µM. For the same compound, the “SI E/B” value (MDA-MB-468 cells; selectivity index, HFF-1 vs MDA-MB-468) was 0.81, the “SI D/B” value (MDA-MB-468 cells; selectivity index, MCF12A vs MDA-MB-468) was 0.34 and the IC50 (MCF12A cells) was 5.6 ± 0.8 µM. The IC50 (HFF-1 cells) was 13.3 ± 3.28 µM, the “mitochondrial ROS production” value (MDA-MB-231 cells [2]) was “increased ROS production” and the IC50 [3] was 0.73 to 16.3 µM.
